Patent US5521177A, “Benzimidazoles, pharmaceutical compositions containing these compounds and processes for preparing them” (Dr. Karl Thomae GmbH, priority 1992, dated 1996)

Biological target: T1, Angiotensin-II-Receptor (Rattus norvegicus, UniProt P25095)
T1 construct: The tissue (rat's lung) is homogenised in Tris buffer; from tissue; host or cells: rat lung homogenate
T1 sequence (P25095 1-359): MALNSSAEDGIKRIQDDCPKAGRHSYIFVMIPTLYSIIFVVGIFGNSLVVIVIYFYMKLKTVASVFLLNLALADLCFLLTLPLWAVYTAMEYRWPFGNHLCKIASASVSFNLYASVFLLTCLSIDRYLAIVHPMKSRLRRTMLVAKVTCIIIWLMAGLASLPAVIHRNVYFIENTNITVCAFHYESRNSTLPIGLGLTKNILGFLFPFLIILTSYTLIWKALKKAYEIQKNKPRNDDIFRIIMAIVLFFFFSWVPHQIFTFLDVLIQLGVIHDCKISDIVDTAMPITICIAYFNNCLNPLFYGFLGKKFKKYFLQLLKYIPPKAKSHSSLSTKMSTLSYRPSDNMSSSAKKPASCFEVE
Assay: Angiotensin-II-Receptor Bonding ([125I]-angiotensin-II displacement, rat's lung homogenate)
Type: binding
Details: 50 pM [125I]-angiotensin-II, 60 minutes at 37° C., pH 7.40
Experimental: Description of Method: Angiotensin-II-Receptor Bonding
The tissue (rat's lung) is homogenised in Tris buffer (50 mMol Tris, 150 mMol NaCl, 5 mMol EDTA, pH 7.40) and centrifuged twice for 20 minutes each time at 20,000×g. The finished pellet is resuspended in incubation buffer (50 mMol Tris, 5 mMol MgCl2, 0.2% BSA, pH 7.40) 1:75, based on the moist weight of the tissue. Each 0.1 ml of homogenate is incubated for 60 minutes at 37° C. with 50 pM [^125 I]-angiotensin-II (NEN, Dreieich, FRG) and increasing concentrations of the test substance in a total volume of 0.25 ml. The incubation is ended by rapid filtration through glass fibre filter mats. The filters are each washed with 4 ml of ice cold buffer (25 mMol Tris, 2.5 mMol MgCl2, 0.1% BSA, pH 7.40). The bound radioactivity is measured in a gamma-counter. The corresponding IC50 value is determined from the dosage-activity curve.
Substances A to H show the following IC50 values in the test described: […]

Row | IC50 [nM] | Compound
1 | 17 | CCc1nc2c(C)cc(Nc3c(N(C)C)c(=O)c3=O)cc2n1Cc1ccc(-c2ccccc2C(=O)O)cc1 [Substance G, 4'-[[2-ethyl-4-methyl-6-[(2-dimethylamino-3,4-dioxo-1-cyclobuten-1-yl) -amino]-1H-benzimidazol-1-yl]-methyl]-biphenyl-2-carboxylic acid]
2 | 13 | CCCc1nc2c(C)cc(NC(=C[N+](=O)[O-])N(C)C)cc2n1Cc1ccc(-c2ccccc2C(=O)O)cc1 [Substance D, 4'-[[2-n-propyl-4-methyl-6-(1-dimethylamino-2-nitro-etheneamino) -1H-benzimidazol-1-yl]methyl]-biphenyl-2-carboxylic acid]
3 | 64 | CCCc1nc2c(C)cc(NC(=C(C#N)C#N)N(C)C)cc2n1Cc1ccc(-c2ccccc2C(=O)O)cc1 [Substance C, 4'-[[2-n-propyl-4-methyl-6-(2,2-dicyano-1-dimethylamino-etheneamino) -1H-benzimidazol-1-yl]-methyl]-biphenyl-2-carboxylic acid]

Second part, the compound before the results:

Row | Compound | IC50 [nM]
4 | CCCc1nc2c(C)cc(NC(=NC#N)NC)cc2n1Cc1ccc(-c2ccccc2C(=O)O)cc1 [Substance A, 4'-[[2-n-Propyl-4-methyl-6-(2-cyano-3-methyl-guanidino)-1H-benzimidazol-1-yl]-methyl]-biphenyl-2-carboxylic acid] | 11
5 | CCCc1nc2c(C)cc(NC(=C[N+](=O)[O-])N(C)C)cc2n1Cc1ccc(-c2ccccc2-c2nnn[nH]2)cc1 [Substance F, 4'-[[2-n-propyl-4-methyl-6-(1,1-dimethylamino-2-nitro-etheneamino) -1H-benzimidazol-1-yl]-methyl]-2-(1H-tetrazol-5-yl)-biphenyl] | 2
6 | CCCc1nc2c(C)cc(NC(=NC#N)N(C)C)cc2n1Cc1ccc(-c2ccccc2-c2nnn[nH]2)cc1 [Substance B, 4'-[[2-n-propyl-4-methyl-6-(2-cyano-3,3-dimethyl-guanidino) -1H-benzimidazol-1-yl]-methyl]-2-(1H-tetrazol-5-yl)-biphenyl] | 3
7 | CCc1nc2c(C)cc(NC(=NS(C)(=O)=O)N(C)C)cc2n1Cc1ccc(-c2ccccc2-c2nnn[nH]2)cc1 [Substance H, 4'-[[2-ethyl-4-methyl-6-(3,3-dimethyl-2-methylsulphonyl-guanidino) -1H-benzimidazol-1-yl]methyl]-2-(1H-tetrazol-5-yl)-biphenyl] | 4
8 | CCCc1nc2c(C)cc(NC(=NS(N)(=O)=O)NC)cc2n1Cc1ccc(-c2ccccc2C(=O)O)cc1 [Substance E, 4'-[[2-n-propyl-4-methyl-6-(3-methyl-2-amidosulphonylguanidino) -1H-benzimidazol-1-yl]methyl]-biphenyl-2-carboxylic acid] | 56
